Assay: Reb M solubility in D2O observed in NMR sample preparation
Format: physicochemical
Conditions: when SCs are not present, compared with SCs present; room temperature
Protocol: A total of four samples were prepared for this study, and they are listed below. Each sample was dissolved fully in water, with or without heat as noted below, flash frozen at −80° C., and then placed on a lyophilizer until dry. The dry powders were subsequently dissolved in D2O at room temperature and analyzed by ^1H NMR and ^13C NMR.

- solubility in D2O: much lower
Structure (SMILES): C=C1C[C@@]23CC[C@H]4[C@@](C)(CCC[C@@]4(C)C(=O)O[C@@H]4O[C@H](CO)[C@@H](O)[C@H](O[C@@H]5O[C@H](CO)[C@@H](O)[C@H](O)[C@H]5O)[C@H]4O[C@@H]4O[C@H](CO)[C@@H](O)[C@H](O)[C@H]4O)[C@@H]2CC[C@]1(O[C@@H]1O[C@H](CO)[C@@H](O)[C@H](O[C@@H]2O[C@H](CO)[C@@H](O)[C@H](O)[C@H]2O)[C@H]1O[C@@H]1O[C@H](CO)[C@@H](O)[C@H](O)[C@H]1O)C3 [Reb M, Rebaudioside M]
